Laboratory results reported in PMC9297976 (Journal of Applied Toxicology, 2021).

Tests used:
medaka ARβ (mArβ) [1] = target: T1, medaka ARβ (mArβ) (Oryzias latipes, UniProt D1MV73); assay: Medaka ARβ reporter gene assay, antagonist assay; assay type: cell-based, Japanese medaka (Oryzias latipes); settings: 11‐KT spiked at 50 nM (D); MAC = 1.0 × 10^−4 M
T1 sequence (D1MV73 1-744): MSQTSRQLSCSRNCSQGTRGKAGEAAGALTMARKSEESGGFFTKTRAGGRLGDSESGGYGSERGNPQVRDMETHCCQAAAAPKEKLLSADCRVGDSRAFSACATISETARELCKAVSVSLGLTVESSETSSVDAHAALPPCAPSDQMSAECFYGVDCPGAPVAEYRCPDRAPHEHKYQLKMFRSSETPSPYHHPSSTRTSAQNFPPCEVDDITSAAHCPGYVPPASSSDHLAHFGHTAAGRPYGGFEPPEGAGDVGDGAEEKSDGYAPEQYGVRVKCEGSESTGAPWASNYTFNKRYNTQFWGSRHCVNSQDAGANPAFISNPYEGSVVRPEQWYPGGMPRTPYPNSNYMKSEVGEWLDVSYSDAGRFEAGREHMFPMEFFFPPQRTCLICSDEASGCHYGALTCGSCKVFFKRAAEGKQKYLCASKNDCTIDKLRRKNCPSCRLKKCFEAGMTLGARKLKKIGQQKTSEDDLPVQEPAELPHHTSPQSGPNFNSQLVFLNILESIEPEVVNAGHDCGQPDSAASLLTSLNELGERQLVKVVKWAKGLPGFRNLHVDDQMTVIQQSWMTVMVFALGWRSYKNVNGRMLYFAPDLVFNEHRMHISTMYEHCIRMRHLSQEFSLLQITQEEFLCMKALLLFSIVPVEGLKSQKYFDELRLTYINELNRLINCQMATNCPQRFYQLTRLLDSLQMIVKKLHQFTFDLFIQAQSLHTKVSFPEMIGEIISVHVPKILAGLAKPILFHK

[2] = tested on: Japanese medaka (Oryzias latipes); assay: Fish Short‐Term Reproduction Assay; assay type: in vivo; settings: for GSI Female / GSI Male / HSI Female / HSI Male / Length Female / Length Male / Weight Female / Weight Male: completion of exposure
medaka Esr1 (mEsr1) [3] = target: T2, medaka Esr1 (mEsr1) (Oryzias latipes, UniProt P50241); assay: cell-based; design: species or system Japanese medaka (Oryzias latipes); settings: MAC = 1.0 × 10^−4 M
T2 sequence (P50241 1-620): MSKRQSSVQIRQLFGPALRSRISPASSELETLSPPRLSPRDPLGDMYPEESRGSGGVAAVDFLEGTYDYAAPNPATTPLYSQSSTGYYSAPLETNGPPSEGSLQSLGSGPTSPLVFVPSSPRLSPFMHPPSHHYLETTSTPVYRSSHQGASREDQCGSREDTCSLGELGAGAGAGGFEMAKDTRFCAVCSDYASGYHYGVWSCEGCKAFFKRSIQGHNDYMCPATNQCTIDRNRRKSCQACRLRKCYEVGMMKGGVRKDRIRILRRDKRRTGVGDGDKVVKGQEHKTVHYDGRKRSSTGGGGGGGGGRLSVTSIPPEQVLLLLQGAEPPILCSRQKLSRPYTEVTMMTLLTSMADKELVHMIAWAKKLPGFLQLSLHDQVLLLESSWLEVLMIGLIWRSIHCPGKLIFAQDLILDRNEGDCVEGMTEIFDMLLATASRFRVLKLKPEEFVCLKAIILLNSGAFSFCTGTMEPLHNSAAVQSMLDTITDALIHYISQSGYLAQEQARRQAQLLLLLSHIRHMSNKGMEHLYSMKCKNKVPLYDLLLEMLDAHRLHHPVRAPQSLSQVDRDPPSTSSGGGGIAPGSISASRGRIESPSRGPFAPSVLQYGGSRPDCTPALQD

medaka Esr1 (mEsr1) [4] = target: T2, medaka Esr1 (mEsr1); assay: Medaka Esr1 reporter gene assay, antagonist assay; assay type: cell-based, Japanese medaka (Oryzias latipes)
medaka ARβ (mArβ) [5] = target: T1, medaka ARβ (mArβ); assay: Medaka ARβ reporter gene assay, agonist assay; assay type: cell-based, Japanese medaka (Oryzias latipes); settings: MAC = 1.0 × 10^−4 M
[6] = measured concentration 0.349 mg/L
[7] = measured concentration 1.02 mg/L

## CCNc1nc(Cl)nc(NC(C)(C)C#N)n1 [CZ, Cyanazine]
Medaka ARβ (mArβ) [1]
  Antagonistic activity: NE (MAC = 1.0 × 10^−4 M)^(D)
[2]; 0.349 mg/L measured, 21 d
  Fertility rate: 80 ± 19%
  Hepatic VTG, female: 2,550 ± 896 ng/mg‐liver
  Hepatic VTG, male: 0.5 ± 0.0 ng/mg‐liver
  Mortality: 4.2%
  Mortality, number of dead fish: 1
  Number of fertilized eggs (per female per day): 12 ± 5.8
  Number of total eggs (per female per day): 14 ± 5.1
  SSC female (joint plates with papillary processes): 0 ± 0
  SSC male (joint plates with papillary processes): 96 ± 5.9
[2]; 1.02 mg/L measured, 21 d
  Fertility rate: 71 ± 20%
  Hepatic VTG, female: 2,860 ± 679 ng/mg‐liver
  Hepatic VTG, male: 0.5 ± 0.0 ng/mg‐liver
  Mortality: 8.3%
  Mortality, number of dead fish: 2
  SSC female (joint plates with papillary processes): 0 ± 0
  SSC male (joint plates with papillary processes): 94 ± 23
[2]; 21 d
  Change of hepatic VTG levels in females (in words): did not reduce
  Fecundity, number of total eggs (in words): statistically significant decrease
[2]; LOEC on reproduction (fecundity and/or fertility)
  LOECREPRO: 1,020 μg/L
[2]; Oryzias latipes, 504 h, read-out: LOECmVTG
  minimal effective concentration: > 1.02 µg/mL
[2]; chemicals with significant decrease of number of total eggs
  Fertility rate (in words): no significant effect
[2]; concentrations without overt toxicity
  LOECREPRO (reduction in fecundity or fertility): 1,020 μg/L
[2]; lowest observed effect concentration on mortality
  LOECTOX: ND (>1,020) μg/L
[2]; [6]
  GSI Female: 8.3 ± 0.9%
  GSI Male: 0.67 ± 0.11%
  HSI Female: 3.4 ± 0.69%
  HSI Male: 1.8 ± 0.18%
  Length Female: 35.8 ± 1.0 mm
  Length Male: 35.3 ± 1.1 mm
  Weight Female: 515 ± 28 mg
  Weight Male: 483 ± 50 mg
[2]; [7]
  GSI Female: 7.6 ± 0.9%
  GSI Male: 0.55 ± 0.08%
  HSI Female: 3.5 ± 0.33%
  HSI Male: 1.7 ± 0.14%
  Length Female: 35.0 ± 1.0 mm
  Length Male: 34.4 ± 0.8 mm
  Weight Female: 470 ± 49 mg
  Weight Male: 419 ± 40 mg
Medaka Esr1 (mEsr1) [3]
  Agonistic activity: NE (MAC = 1.0 × 10^−4 M)
Medaka Esr1 (mEsr1) [4]
  IC50: 610 nM
Medaka Esr1 (mEsr1) [4]; antagonist assays
  Antagonistic activity on mEsr1 (in words): inhibited the transcriptional activity on mEsr1 by E2
Medaka Esr1 (mEsr1) [4]; mode of action in which IC50 or IC30 was obtained in RGA
  In vitro positive: aEsr: aEsr
Medaka ARβ (mArβ) [5]
  Agonistic activity: NE (MAC = 1.0 × 10^−4 M)
